Measured values from the NIST ThermoML archive (doi:10.1016/j.jct.2008.10.010).

Test: molar heat capacity at constant pressure; xn = mol fraction of the nth substance listed
Settings: 101.3 kPa, Liquid, Small sample (50 mg) DSC

CCC(C)(C)O [2-methylbutan-2-ol] + CCCCCCC
Settings | molar heat capacity at constant pressure [J/K/mol]
327.15 K, x1 = 0.1547 | 258.26
327.15 K, x1 = 0.2993 | 269.94
327.15 K, x1 = 0.4051 | 274.66
327.15 K, x1 = 0.4986 | 277.47
327.15 K, x1 = 0.5981 | 279.08
327.15 K, x1 = 0.7015 | 280.02
327.15 K, x1 = 0.8023 | 279.59
327.15 K, x1 = 0.9139 | 278.56
327.15 K, x1 = 0.9609 | 277.44
328.15 K, x1 = 0.0061 | 236.22
328.15 K, x1 = 0.0249 | 237.72
328.15 K, x1 = 0.0494 | 242.15
328.15 K, x1 = 0.1 | 251.24
328.15 K, x1 = 0.1547 | 258.56
328.15 K, x1 = 0.1999 | 263.19
328.15 K, x1 = 0.2993 | 270.46
328.15 K, x1 = 0.4051 | 275.23
328.15 K, x1 = 0.4986 | 278.16
328.15 K, x1 = 0.5981 | 279.9
328.15 K, x1 = 0.7015 | 280.91
328.15 K, x1 = 0.8023 | 280.5
328.15 K, x1 = 0.9139 | 279.46
328.15 K, x1 = 0.9609 | 278.39
329.14 K, x1 = 0.0061 | 236.63
329.14 K, x1 = 0.0249 | 238.11
329.14 K, x1 = 0.0494 | 242.34
329.14 K, x1 = 0.1 | 251.42
329.14 K, x1 = 0.1547 | 258.8
329.14 K, x1 = 0.1999 | 263.54
329.14 K, x1 = 0.2993 | 270.92
329.14 K, x1 = 0.4051 | 275.78
329.14 K, x1 = 0.4986 | 278.83
329.14 K, x1 = 0.5981 | 280.59
329.14 K, x1 = 0.7015 | 281.67
329.14 K, x1 = 0.8023 | 281.37
329.14 K, x1 = 0.9139 | 280.33
329.14 K, x1 = 0.9609 | 279.29
330.14 K, x1 = 0.0061 | 237.14
330.14 K, x1 = 0.1 | 251.61
330.14 K, x1 = 0.1547 | 259.04
330.14 K, x1 = 0.2993 | 271.42
330.14 K, x1 = 0.4986 | 279.45
330.14 K, x1 = 0.5981 | 281.32
330.14 K, x1 = 0.7015 | 282.46
330.14 K, x1 = 0.8023 | 282.14
330.14 K, x1 = 0.9139 | 281.17
330.14 K, x1 = 0.9609 | 280.09
330.15 K, x1 = 0.0249 | 238.44
330.15 K, x1 = 0.0494 | 242.58
330.15 K, x1 = 0.1999 | 263.87
330.15 K, x1 = 0.4051 | 276.4
331.15 K, x1 = 0.0061 | 237.49
331.15 K, x1 = 0.0249 | 238.7
331.15 K, x1 = 0.0494 | 242.66
331.15 K, x1 = 0.1 | 251.73
331.15 K, x1 = 0.1547 | 259.17
331.15 K, x1 = 0.1999 | 264.08
331.15 K, x1 = 0.2993 | 271.78
331.15 K, x1 = 0.4051 | 276.82
331.15 K, x1 = 0.4986 | 280.03
331.15 K, x1 = 0.5981 | 282
331.15 K, x1 = 0.7015 | 283.13
331.15 K, x1 = 0.8023 | 282.9
331.15 K, x1 = 0.9139 | 281.93
331.15 K, x1 = 0.9609 | 280.9
332.11 K, x1 = 0.4051 | 277.29
332.14 K, x1 = 0.0061 | 237.91
332.14 K, x1 = 0.0249 | 239.06
332.14 K, x1 = 0.0494 | 242.88
332.14 K, x1 = 0.1 | 251.74
332.14 K, x1 = 0.1547 | 259.34
332.14 K, x1 = 0.1999 | 264.36
332.14 K, x1 = 0.2993 | 272.13
332.14 K, x1 = 0.4986 | 280.59
332.14 K, x1 = 0.5981 | 282.58
332.14 K, x1 = 0.7015 | 283.9
332.14 K, x1 = 0.8023 | 283.62
332.14 K, x1 = 0.9139 | 282.68
332.14 K, x1 = 0.9609 | 281.66
333.14 K, x1 = 0.0061 | 238.38
333.14 K, x1 = 0.0249 | 239.45
333.14 K, x1 = 0.0494 | 243.08
333.14 K, x1 = 0.1 | 251.95
333.14 K, x1 = 0.1547 | 259.59
333.14 K, x1 = 0.1999 | 264.68
333.14 K, x1 = 0.2993 | 272.54
333.14 K, x1 = 0.4051 | 277.88
333.14 K, x1 = 0.4986 | 281.17
333.14 K, x1 = 0.7015 | 284.62
333.14 K, x1 = 0.8023 | 284.48
333.14 K, x1 = 0.9139 | 283.56
333.14 K, x1 = 0.9609 | 282.52
333.15 K, x1 = 0.5981 | 283.29
334.04 K, x1 = 0.0249 | 239.87
334.15 K, x1 = 0.0061 | 238.94
334.15 K, x1 = 0.0494 | 243.42
334.15 K, x1 = 0.1 | 252.08
334.15 K, x1 = 0.1547 | 259.81
334.15 K, x1 = 0.1999 | 264.99
334.15 K, x1 = 0.2993 | 272.99
334.15 K, x1 = 0.4051 | 278.43
334.15 K, x1 = 0.4986 | 281.83
334.15 K, x1 = 0.5981 | 284.02
334.15 K, x1 = 0.7015 | 285.36
334.15 K, x1 = 0.8023 | 285.27
334.15 K, x1 = 0.9139 | 284.32
334.15 K, x1 = 0.9609 | 283.36
334.33 K, x1 = 0.0249 | 239.98
335.14 K, x1 = 0.0061 | 239.28
335.14 K, x1 = 0.0249 | 240.2
335.14 K, x1 = 0.0494 | 243.54
335.14 K, x1 = 0.1 | 252.23
335.14 K, x1 = 0.1547 | 259.88
335.14 K, x1 = 0.1999 | 265.1
335.14 K, x1 = 0.2993 | 273.19
335.14 K, x1 = 0.4051 | 278.76
335.14 K, x1 = 0.4986 | 282.26
335.14 K, x1 = 0.5981 | 284.55
335.14 K, x1 = 0.7015 | 286
335.14 K, x1 = 0.8023 | 285.89
335.14 K, x1 = 0.9139 | 285.08
335.14 K, x1 = 0.9609 | 284.15
336.14 K, x1 = 0.0061 | 239.67
336.14 K, x1 = 0.0249 | 240.6
336.14 K, x1 = 0.0494 | 243.78
